From patent publication US7534455B2, “Herbal composition PHY906 and its use in chemotherapy” (Yale University, priority 2000, dated 2009)
Like-named read-outs stand apart in the source and are kept apart here. One block for each compound: values may come before it.

Key:
[1] = Host toxicity (body weight loss, mortality, blood cell counts) in chemotherapy treated BDF-1 mice bearing Colon 38 tumor; type: in vivo
Procedure: (§1) Anti-Tumor Studies: Murine Colon 38 (1-2×10^6 cells in 0.1 ml PBS) or human HepG2 cells (1-2×10^6 cells in 0.1 ml PBS) were transplanted subcutaneously into BDF1 or NCr athymic nude mice, respectively. The length and width of the tumors were measured daily with sliding calipers. The tumor weight was estimated according to the following formula (Pizzorno G, Wiegand R, Lentz S, et al., Cancer Res. 52:1660-1665 (1992)): Tumor weight (mg)=length (mm)×width (mm)^2/2.
(§2) After 10 to 14 days, mice (five animals/group) with tumor weights ranging from 150-200 mg were selected for drug studies (Guo X, Lerner-Tung M, Chen H X, et al., Biochem Pharmacol 49:1111-1116 (1995)). Mice were sacrificed when the tumor size reached 10% of body weight. PHY906 was administered orally either alone or with anti-cancer chemotherapeutic agents. The effect of PHY906 on antitumor efficacy and the reduction of toxicity by the agents were evaluated. CPT-11 was given intraperitoneally (i.p.) 30 min after PHY906 administration with the selected dose. The regimen of FU/LV combination therapy was given as follows:
The first day of treatment was defined as day 0. PHY906 was given orally twice a day (10 am and 3 pm) for either 4 or 8 days beginning on day 0. For the control group, mice were administrated a vehicle, either PBS for i.p. or H2O for p.o. (oral administration). Animals were monitored for mortality, weight loss, and tumor size daily.
Blood Cell Counts: Blood (20 μl) was taken from mice on days 0, 3, 6, 9 and 12 with micro-capillary tubes. Blood was then be diluted to 200 μl with normal saline (0.85% Sodium Chloride). WBC, RBC and platelets were counted by a BAKER SYSTEM 9100™ […] (Biochem ImmunoSystems Inc., Allentown, Pa. 18103-9562).
PHY906 was evaluated as a modulator of CPT-11 therapy for toxic side effects in mice inoculated with Colon 38 tumor cells. Based on the previous findings (Example 2), a single bolus dose of 400 mg/kg CPT-11 was selected to study the effect of PHY906 on weight-loss associated with toxicity of CPT-11. To evaluate whether PHY906 impairs the antitumor efficacy of CPT-11, mice were implanted subcutaneously with Colon 38 tumor cells. Ten to 14 days after inoculation, mice were treated with CPT-11 (400 mg/kg, i.p.) in the absence or presence of PHY906, which was given orally twice a day at varying doses (125 mg/kg, 250 mg/kg, and 500 mg/kg). PHY906 treatment was continued at the dose indicated for 8 consecutive days.
Mice were divided into four groups with different treatment regimens: Group (A) treatment with vehicle; Group (B) treatment with a single dose of 400 mg/kg CPT-11 by i.p. injection; Group (C) treatment with PHY906 (500 mg/kg/b.i.d.) alone; or Group (D) treatment with a single dose of 400 mg/kg CPT-11 plus 500 mg/kg/b.i.d. PHY906 for 4 or 8 days. The sequence of each treatment regimen appears in Materials and Methods. As depicted in Table 9, 35 of 35 tumor-bearing mice (100%) from Group A and 15 of 15 mice (100%) from Group C survived treatment with either vehicle or PHY906 alone for 4 or 8 days, indicating no or very low toxicity for PHY906.

Colon 38 tumor = assay: Tumor growth in BDF-1 mice bearing Colon 38 tumor; type: in vivo, mouse; settings: CPT-11 treated mice; formulation 1 g/kg, bid, 8 days
Procedure: as §1, §2
(A) treatment with FU/LV alone: first dose of LV (50 mg/kg, i.p.), one hour later the second dose of LV (50 mg/kg; i.p.), then immediately given FU (100 mg/kg, i.p.) […]
The first day of treatment was defined as day 0. […] Animals were monitored for mortality, weight loss, and tumor size daily.

[2] = test system: PAN02 murine pancreatic carcinoma; assay: Tumor growth in PAN02 murine pancreatic carcinoma model; type: in vivo, mouse; settings: C57/BL6 mice; 150 mg/kg
Procedure: Tumor Cells: The human hepatocellular carcinoma HepG2, human PANC-1 pancreatic cancer and mouse Colon 38 colorectal cancer cell lines were purchased from the American Type Culture Collection (Rockville, Md.). […] Small chunk of mouse PAN02 tumor from NCI was suspended in PBS solution as a total volume of 0.8 ml. The cells were implanted into the left flank of mice. Tumor transplantation from mice to mice was performed when the tumor reached 1500-2000 mm^3. Mouse Tumor Model: Tumor cells (5×10^6 cells in 0.1 ml PBS) were transplanted subcutaneously into the left flank of mice. After 14 days, tumor ranging in size from 300-500 mm^3 was selected for drug studies. The length and width of the each tumor was measured with sliding calipers. The tumor size was estimated according to the following formula: Tumor size (mm^3)=length (mm)×width (mm)^2/2. Antitumor Activity of Chemotherapeutic Agents in the Presence or Absence of PHY906: […] The first day of drug treatment was defined as day 1. […] Chemotherapeutic agents were given either intraperitoneally or orally at the dose and schedule indicated. The tumor size, body weight, and mortality of the mice were monitored daily.

[3] = Pharmacokinetics of gemcitabine (dFdC) and dFdU in plasma of PAN02 bearing BDF-1 mice; type: in vivo; settings: for AUC, dFdC + PHY906: PHY906 500 mg/kg 30 min before gemcitabine; for AUC, dFdC alone: gemcitabine 600 mg/kg
Procedure: Plasma Handling: The mouse plasma was separated from the blood by centrifugation at 10,000 g at 4° C. for 10 min.
b) Gemcitabine-containing plasma: The plasma (50 μl) was extracted with 200 μl of acetonitrile (ACN) in the presence of 5 μl of 0.1 mM AZT as an internal standard. After centrifugation, the supernatant was dried by a Speedvac, reconstituted with 100 μl of solution containing 2.5% ACN and 97.5% of 15 mM ammonium acetate (pH 5.0).
The resultant analyte was then analyzed by HPLC with UV absorption and/or radioactivity.
To determine, for a future clinical trial, if PHY906 would change the metabolism of gemcitabine, a pharmacokinetics analysis in mice bearing pancreatic cancer was performed. Mice were divided into three sets of 15: gemcitabine only, gemcitabine plus PHY906, and vehicle control. Each mouse in the set was bled twice at two different time points. Plasma was processed as described in Materials and Methods and analyzed by HPLC with radioactivity confirmation of peak identity and quantitation.

pancreatic cancer = settings: monotherapy; cited from earlier work

Structure (SMILES): CN(C)C(=O)C(CCN1CCC(O)(c2ccc(Cl)cc2)CC1)(c1ccccc1)c1ccccc1 [Loperamide]
Protecting against body weight loss or enhancing the antitumor effects of CPT-11 ([1]; CPT-11 treated BDF-1 mice bearing Colon 38): completely ineffective
Protection from Body Weight Loss ([1]; CPT-11 treated mice, formulation 1 g/kg (dry weight incl. excipient), bid, 8 days): No Change
Antitumor Effect (Colon 38 tumor): No Change

Cmax ([3]; BDF-1, mouse, plasma, oral, 600 mg/kg, Radioactivity detection, read-out: Cmax, dFdC + PHY906): 400 µg/mL
Cmax ([3]; BDF-1, mouse, plasma, oral, 600 mg/kg, Radioactivity detection, read-out: Cmax, dFdC alone): 360 µg/mL
Tmax ([3]; BDF-1, mouse, plasma, oral, 600 mg/kg, Radioactivity detection, read-out: Tmax, dFdC alone (converted)): 15 min
half-life ([3]; BDF-1, mouse, plasma, oral, 600 mg/kg, Radioactivity detection, read-out: T½, dFdC + PHY906): 34.2 min
half-life ([3]; BDF-1, mouse, plasma, oral, 600 mg/kg, Radioactivity detection, read-out: T½, dFdC alone): 26.5 min
Cmax ([3]; BDF-1, mouse, plasma, oral, 600 mg/kg, UV detection, read-out: Cmax, dFdC alone): 230 µg/mL
half-life ([3]; BDF-1, mouse, plasma, oral, 600 mg/kg, UV detection, read-out: T½, dFdC alone): 27 min
Tmax, dFdC + PHY906 ([3]; Radioactivity detection): 15 min
AUC, dFdC + PHY906 ([3]; Radioactivity detection): 25.0 mg·min/mL
AUC, dFdC alone ([3]; Radioactivity detection): 15.6 mg·min/mL
Cmax, dFdC + PHY906 ([3]; UV detection): 250 µg/mL
Tmax, dFdC + PHY906 ([3]; UV detection): 15 min
Tmax, dFdC alone ([3]; UV detection): 15 min
T½, dFdC + PHY906 ([3]; UV detection): 31.0 min
AUC, dFdC + PHY906 ([3]; UV detection): 15.4 mg·min/mL
AUC, dFdC alone ([3]; UV detection): 10.8 mg·min/mL
Levels in circulation in the presence or absence of PHY906 ([3]; plasma): not a dramatic difference
Structure (SMILES): Nc1ccn([C@@H]2O[C@H](CO)[C@@H](O)C2(F)F)c(=O)n1 [dFdC, 2′-deoxy-2′,2′-difluoro-cytidine]
Antitumor activity, gemcitabine alone [2]: did not have antitumor activity
Overall survival time (pancreatic cancer): 4-6 months
Response rate in patients (pancreatic cancer): 6-11%
